{"source": "ChEMBL document CHEMBL1151364", "about": "“19-Hydroxybaccatin III, 10-deacetylcephalomannine, and 10-deacetyltaxol: new antitumor taxanes from Taxus wallichiana” (1981)", "key": {"KB": {"tested_on": "KB", "experiment": "Cytotoxicity against human KB cells", "assay_type": "functional", "details": "for EC50: Homo sapiens, KB, read-out: ED50 (the source's name)"}, "P388 [1]": {"tested_on": "P388", "experiment": "In vivo antitumor activity against mouse P388 cells at 2.2 mg/kg relative to control", "assay_type": "functional"}, "P388 [2]": {"tested_on": "P388", "experiment": "In vivo antitumor activity against mouse P388 cells at 16 mg/kg relative to control", "assay_type": "functional"}, "P388 [3]": {"tested_on": "P388", "experiment": "In vivo antitumor activity against mouse P388 cells at 0.26 to 4.3 mg/kg", "assay_type": "functional, organism-based"}}, "note": "Activity calls are given as the source filed them. No cut-off for these calls is given here.", "data": [{"smiles": "C/C=C(\\C)C(=O)N[C@@H](c1ccccc1)[C@@H](O)C(=O)O[C@H]1C[C@@]2(O)[C@@H](OC(=O)c3ccccc3)[C@@H]3[C@]4(OC(C)=O)CO[C@@H]4C[C@H](O)[C@@]3(C)C(=O)[C@H](OC(C)=O)C(=C1C)C2(C)C", "note": "[CEPHALOMANNINE]", "values": [{"measurement": "EC50", "setting": "KB", "result": 0.0038, "unit": "µg/mL"}, {"measurement": "T/C", "setting": "P388 [1]", "result": 162, "unit": "%"}]}, {"smiles": "CC(=O)O[C@@]12CO[C@@H]1C[C@@H](O)[C@@]1(C)C(=O)[C@H](O)C3=C(C)[C@@H](OC(=O)[C@H](O)[C@@H](NC(=O)c4ccccc4)c4ccccc4)C[C@@](O)([C@@H](OC(=O)c4ccccc4)[C@H]21)C3(C)C", "values": [{"measurement": "EC50", "setting": "KB", "result": 0.034, "unit": "µg/mL"}]}, {"smiles": "CC(=O)O[C@H]1C(=O)[C@@]2(C)[C@H]([C@H](OC(=O)c3ccccc3)[C@]3(O)C[C@H](OC(=O)[C@H](O)[C@@H](NC(=O)c4ccccc4)c4ccccc4)C(C)=C1C3(C)C)[C@]1(OC(C)=O)CO[C@@H]1C[C@@H]2O", "note": "[PACLITAXEL]", "values": [{"measurement": "EC50", "setting": "KB", "result": 0.0012, "unit": "µg/mL"}, {"measurement": "T/C", "setting": "P388 [1]", "result": 152, "unit": "%"}]}, {"smiles": "CC(=O)O[C@@]12CO[C@@H]1C[C@H](O)[C@@]1(C)C(=O)[C@H](O)C3=C(C)[C@@H](OC(=O)[C@H](O)[C@@H](NC(=O)c4ccccc4)c4ccccc4)C[C@@](O)([C@@H](OC(=O)c4ccccc4)[C@H]21)C3(C)C", "values": [{"measurement": "EC50", "setting": "KB", "result": 0.027, "unit": "µg/mL"}, {"measurement": "T/C", "setting": "P388 [2]", "result": 135, "unit": "%"}]}, {"smiles": "C/C=C(\\C)C(=O)N[C@@H](c1ccccc1)[C@@H](O)C(=O)O[C@H]1C[C@@]2(O)[C@@H](OC(=O)c3ccccc3)[C@@H]3[C@]4(OC(C)=O)CO[C@@H]4C[C@H](O)[C@@]3(C)C(=O)[C@H](O)C(=C1C)C2(C)C", "values": [{"measurement": "EC50", "setting": "KB", "result": 0.031, "unit": "µg/mL"}, {"measurement": "T/C", "setting": "P388 [2]", "result": 130, "unit": "%"}]}, {"smiles": "C/C=C(\\C)C(=O)N[C@@H](c1ccccc1)[C@@H](O)C(=O)O[C@H]1C[C@@]2(O)[C@@H](OC(=O)c3ccccc3)[C@@H]3[C@]4(OC(C)=O)CO[C@@H]4C[C@@H](O)[C@@]3(C)C(=O)[C@H](O)C(=C1C)C2(C)C", "values": [{"measurement": "EC50", "setting": "KB", "result": 0.046, "unit": "µg/mL"}]}, {"smiles": "CC(=O)O[C@H]1C(=O)[C@@]2(CO)[C@H]([C@H](OC(=O)c3ccccc3)[C@]3(O)C[C@H](O)C(C)=C1C3(C)C)[C@]1(OC(C)=O)CO[C@@H]1C[C@@H]2O", "values": [{"measurement": "Activity", "setting": "KB", "result": 2.2, "unit": "µg/mL"}, {"measurement": "Activity", "setting": "P388 [3]", "result": "inactive"}]}]}
